Data taken from PMC9698716, “From Serendipity to Rational Identification of the 5,6,7,8-Tetrahydrobenzo[4,5]thieno[2,3-d]pyrimidin-4(3H)-one Core as a New Chemotype of AKT1 Inhibitors for Acute Myeloid Leukemia” (Pharmaceutics, 2022).
Like-named read-outs stand apart in the source and are kept apart here. Values belong to the compound of their own block, whether it stands above or below them.

Key:
SKM-1 = test: CellTiter Blue cell viability assay; assay type: cell-based, human; conditions: SKM-1, 48 h, read-out: cellular IC50
Excerpt: (§1) The human AML cell lines, OCI-AML3 (carrying the NPM1 gene mutation A and the DNMT3A^R882C mutation), IMS-M2 (carrying the NPM1 gene mutation A), OCI-AML2 (with the wild-type NPM1 and DNMT3A^R635W mutation), and SKM-1 and MOLM-13 (with the wild-type NPM1) were previously reported. The cell lines were purchased from the Deutsche Sammelung von Mikroorganismen und Zellkulturen (DSMZ) (Braunschweig, Germany) cell bank and maintained according to the vendors’ instructions. Briefly, cultured cells were split every 3 days and maintained in an exponential growth phase. The cell lines were tested for mycoplasma using the Universal Mycoplasma Detection Kit (ATCC). The OCI-AML3 were grown in α-MEM supplemented with 20% fetal bovine serum, 100 U/mL penicillin, and 100 μg/mL streptomycin (P/S), and all other cell lines were cultured in RPMI and supplemented with a 10–20% fetal bovine serum and 100 U/mL penicillin and 100 μg/mL streptomycin. The cells were kept at 37 °C in a 5% CO2 incubator. Prior to screening, the appropriate cell concentration for all cell lines was determined. For the cell lines’ treatments, cells were maintained as follows: OCI-AML3 at 0.25 × 10^6/mL, OCI-AML2 and IMS-M2 at 0.35 × 10^6/mL, and SKM-1 and MOLM-13 at 0.5 × 10^6/mL. The compounds were re-suspended at 10 mM stock in DMSO. Further dilutions were performed in phosphate-buffer-saline (PBS) for pharmacological experiments. The cells were exposed to compounds at different concentrations for the indicated time points and sampled as described below. Briefly, the cells (4 × 10^5/mL) were seeded in 384-well plate and treated for 48 h with various concentrations (0.001 μM to 100 μM) of either one of the compounds, T101, T126, and T159, or NSC348884, as a positive control. Each plate included DMSO at 0.1% as a negative control. The metabolic cell activity was measured by using the CellTiter Blue proliferation agent (Roche) as described in the manufacturer’s procedure. Briefly, CellTiter Blue solution (Resazaurin) was added to each well and the plates were incubated at 37 °C with 5% CO2 for 4 h. During the incubation time, the resazurin is reduced to fluorescent resorufin in metabolically and proliferating living cells. The fluorescence intensity was measured using the automated Tecan plate reader (Tecan Group Ltd., Männedorf, Switzerland) at an excitation/emission wavelength of 531/572 nm. The fluorescence readouts were reported as relative fluorescence units (RFU) and read on a luminescence plate reader (Infinite 200 Pro, Tecan, CA, USA). The dose response curves ([…] (IC50)) were obtained by non-linear regression analysis using the GraphPad Prism 5.0 program. The concentration is shown as a logarithmic function. All the experiments were performed at least in triplicate, with technical repetition. The results are expressed as mean ± standard error of the mean (SEM). For the Colony Forming Unit (CFU) assay, 10 × 10^6 CD34+ human hematopoietic progenitors were received from unique healthy donors, upon signed informed consent, and were cultured in SFEM II (Serum-free medium) and P/S at a density of 1 × 10^6/mL with cytokines that are important for cell division and self-renewal: fms-like tyrosine kinase 3 (FLT3)-ligand, FLT3L (100 ng/mL), Stem Cell Factor, SCF (100 ng/mL) and Trombopoietin, and TPO (50 ng/mL) for 48 h before plating them on a Methocult medium.

OCI-AML2 = test: CellTiter Blue cell viability assay; assay type: cell-based, human; conditions: OCI-AML2, 48 h, read-out: cellular IC50
Excerpt: as §1

MOLM-13 = test: CellTiter Blue cell viability assay; assay type: cell-based, human; conditions: MOLM-13, 48 h, read-out: cellular IC50
Excerpt: as §1

IMS-M2 = test: CellTiter Blue cell viability assay; assay type: cell-based, human; conditions: IMS-M2, 48 h, read-out: cellular IC50
Excerpt: as §1

OCI-AML3 = test: CellTiter Blue cell viability assay; assay type: cell-based, human; conditions: OCI-AML3, 48 h, read-out: cellular IC50
Excerpt: as §1

AKT1 [1] = target: T1, AKT1 (Homo sapiens, UniProt P31749); test: AKT1 enzymatic inhibition assay; assay type: biochemical; conditions: for Ligand efficiency (LE = 1.4 pIC50/N): from AKT1 IC50, N = heavy atoms; for Ki: read-out: Ki (AKT1 inhibition constant)
T1 construct: purchased Kinase Logistics, Meyn, Germany #Aps 01-101
Method: The studied compounds, including the standard inhibitor Staurosporine (Thermo-Fisher , Madrid, Spain, Invitrogen BP2541), were incubated with 3 nM AKT1 (#Aps 01-101; Kinase Logistics, Meyn, Germany) and 1.5 μM Profiler Pro peptide 6 (#760350; Perkin Elmer, Tres Cantos, Madrid, Spain) in the presence of different concentrations of Adenosine 5′triphosphate disodium salt, ATP (#A2383; Sigma Aldrich, Madrid, Spain) in a 384-well Microplate (#781076; Greiner, San Sebastián de los Reyes, Madrid, Spain). The reaction rate was calculated from kinetic measurements carried out measured in a Caliper EzReader LabChip 3000 (Caliper, Hopkinton, MA, USA) reader with samples taken each 10 min for a total time of 60 min. The percentage of substrate conversion rate was plotted versus the ATP concentration. The data was analyzed by non-linear fitting with GraphPad Prism by employing the Michaelis–Menten equation. The buffer assay used in the inhibition hAKT1 assay is: Hepes 100 mM, DMSO 4%, Brij 0.003%, Tween 20 0.004%, MgCl2 10 mM, with a pH = 7.5.
The Ki values were calculated by employing the GraphPad Prism equations.

p38 MAPK = test: activity against p38 MAPK (originally desired target); assay type: biochemical
AKT1 [2] = system: AKT1; design: method as in PMID 33995085; conditions: ref [51]; cited from earlier work
AKT3 = system: AKT3; design: method as in PMID 33995085; conditions: ref [51]; cited from earlier work
[3] = 10 μM compound, read-out: %inh (percentage of inhibition of AKT1 activity)

T1 sequence (P31749 whole entry): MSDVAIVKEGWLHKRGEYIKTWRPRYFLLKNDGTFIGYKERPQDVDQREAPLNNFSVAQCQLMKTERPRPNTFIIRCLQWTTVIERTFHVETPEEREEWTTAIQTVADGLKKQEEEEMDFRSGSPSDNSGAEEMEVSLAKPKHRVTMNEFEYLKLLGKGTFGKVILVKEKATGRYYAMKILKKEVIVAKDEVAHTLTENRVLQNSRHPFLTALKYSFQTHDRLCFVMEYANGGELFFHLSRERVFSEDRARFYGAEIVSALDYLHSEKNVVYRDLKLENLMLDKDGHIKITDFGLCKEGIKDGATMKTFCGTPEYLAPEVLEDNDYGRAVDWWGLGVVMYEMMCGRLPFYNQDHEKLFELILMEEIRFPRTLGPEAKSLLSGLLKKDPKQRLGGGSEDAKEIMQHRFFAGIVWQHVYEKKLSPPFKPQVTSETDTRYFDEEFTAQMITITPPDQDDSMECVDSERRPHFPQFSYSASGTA

Compound: Cc1ccc2nc(CN(CCN(Cc3nc4ccc(C)cc4[nH]3)Cc3nc4ccc(C)cc4[nH]3)Cc3nc4ccc(C)cc4[nH]3)[nH]c2c1 [NSC348884, reference compound]
IC50 (SKM-1): 2.1 µM
IC50 (OCI-AML2): 5.6 µM
IC50 (MOLM-13): 3.4 µM
IC50 (IMS-M2): 7.6 µM
IC50 (OCI-AML3): 6.6 µM

Compound: Cc1cc(-c2ccccc2)nc2nc(NC(=O)c3ccc(O)c(O)c3)nn12 [T101]
IC50 (SKM-1; Homo sapiens): > 30 µM
IC50 (OCI-AML2; Homo sapiens): > 30 µM
IC50 (MOLM-13; Homo sapiens): > 30 µM
IC50 (IMS-M2; Homo sapiens): > 30 µM
IC50 (OCI-AML3; Homo sapiens, OCI-AML-3): > 30 µM
IC50 (AKT1 [1]): 1.62 ± 0.15 µM
inhibition at 10 µM (AKT1 [1]; [3]): 95%
Ligand efficiency (LE = 1.4 pIC50/N) (AKT1 [1]): 0.29 kcal mol^−1 N^−1
Ki (AKT1 [1]): 0.24 µM

Compound: O=c1[nH]c(-c2ccc(O)c(O)c2)nc2sc3c(c12)CCCCC3 [T124]
IC50 (AKT1 [1]): 30.9 µM
potency against AKT1 (in words) (AKT1 [1]): moderately active
%inh (percentage of inhibition of AKT1 activity) (AKT1 [1]; 10 μM compound, 10 µM): 60%
inhibition at 10 µM (AKT1 [1]; [3]): > 60%
Ligand efficiency (LE = 1.4 pIC50/N) (AKT1 [1]): 0.27 kcal mol^−1 N^−1

Compound: CC(C)NC[C@@H](C(=O)N1CCN(c2ncnc3c2[C@H](C)C[C@H]3O)CC1)c1ccc(Cl)cc1 [ipatasertib]
IC50 (AKT1 [2]): […]
IC50 (AKT3): […]

Second part, led by results:

IC50 (AKT1 [1]): 26.6 ± 4.8 µM
potency against AKT1 (in words) (AKT1 [1]): moderately active
inhibition at 10 µM (AKT1 [1]; [3]): 78%
Ligand efficiency (LE = 1.4 pIC50/N) (AKT1 [1]): 0.30 kcal mol^−1 N^−1
Compound: O=c1[nH]c(-c2ccc(O)c(O)c2)nc2sc3c(c12)CCC3 [T128]

IC50 (SKM-1; Homo sapiens): > 30 µM
IC50 (OCI-AML2; Homo sapiens): > 30 µM
IC50 (MOLM-13; Homo sapiens): > 30 µM
IC50 (OCI-AML3; Homo sapiens, OCI-AML-3): > 30 µM
IC50 (AKT1 [1]): 2.12 ± 0.26 µM
inhibition at 10 µM (AKT1 [1]; [3]): 94%
Ki (AKT1 [1]): 1.91 µM
Compound: NC(=O)c1c(NC(=O)c2ccc(O)c(O)c2)sc2c1CCCCC2 [T159]
IC50 (IMS-M2; Homo sapiens): > 30 µM

IC50 (AKT1 [1]): 11.4 ± 2.8 µM
inhibition at 10 µM (AKT1 [1]; [3]): 56%
inhibition at 50 µM (AKT1 [1]; 50 μM compound solution (footnote b of Table S2), read-out: %inh (percentage of inhibition of AKT1 activity)): 56%
Ligand efficiency (LE = 1.4 pIC50/N) (AKT1 [1]): 0.28 kcal mol^−1 N^−1
Ki (AKT1 [1]): 4.19 ± 1.36 µM
Compound: NC(=O)c1c(NC(=O)c2ccc(F)cc2F)sc2c1CCCCC2 [T187, 2-(2,4-Difluorobenzamido)-5,6,7,8-tetrahydro-4H-cyclohepta[b]thiophene-3-carboxamide]
activity against p38 MAPK (p38 MAPK): inactive
